In patent publication US9302999B2, “Substituted triazoles as herbicides” (E. I. DU PONT DE NEMOURS AND COMPANY, priority 2012, dated 2016):

Key:
Assay type in all cases: in vivo
soybean (Glycine max) = assay: Test F pre-/postemergence: soybean
Description: (§1) Seeds of plant species selected from corn (Zea mays), soybean (Glycine max), velvetleaf (Abutilon theophrasti), lambsquarters (Chenopodium album), poinsettia, wild (wild poinsettia, Euphorbia heterophylla), pigweed, palmer (palmer pigweed, Amaranthus palmeri), waterhemp (common waterhemp, Amaranthus rudis), surinam grass (Brachiaria decumbens), crabgrass, Brazil (Brazilian crabgrass, Digitaria horizontalis), panicum, fall (fall panicum Panicum dichotomiflorum), crabgrass, large (large crabgrass, Digitaria sanguinalis), foxtail, giant (giant foxtail, Setaria faberii), foxtail, green (green foxtail Setaria viridis), goosegrass (Eleusine indica), ragweed (common ragweed, Ambrosia elatior), barnyardgrass (Echinochloa crus-galli), sandbur (southern sandbur, Cenchrus echinatus), arrowleaf sida (Sida rhombifolia), ryegrass, Italian (Italian ryegrass, Lolium multiflorum), dayflower, VA (Virginia (VA) dayflower, Commelina virginica), field bindweed (Convolvulus arvensis), cocklebur (common cocklebur, Xanthium strumarium), morningglory (Ipomoea coccinea), nightshade (eastern black nightshade, Solanum ptycanthum), kochia (Kochia scoparia), nutsedge, yellow (yellow nutsedge, Cyperus esculentus), johnsongrass (Sorghum halepense), smartweed (ladysthumb smartweed, Polygonum persicaria), and beggarticks (hairy beggarticks, Bidens pilosa), were planted into a silt loam soil and treated preemergence with test chemicals formulated in a non-phytotoxic solvent mixture which included a surfactant. At the same time, plants selected from these crop and weed species and also pigweed (Amaranthus retroflexus), waterhemp_RES1 (ALS/Triazine resistant common waterhemp, Amaranthus rudis) and waterhemp_RES2 (ALS/HPPD resistant common waterhemp, Amaranthus rudis) were planted in pots containing a planting medium comprising spaghnum peat moss, vermiculite, wetting agent and starter nutrients treated with postemergence applications of some of the test chemicals formulated in the same manner. Plants ranged in height from 2 to 18 cm for postemergence treatments (1- to 4-leaf stage).
(§2) Treated plants and controls were maintained in a greenhouse for 14 to 21 days, after which time all species were compared to controls and visually evaluated. Plant response ratings, summarized in Table E, are based on a scale of 0 to 100 where 0 is no effect and 100 is complete control. A dash (-) response means no test result.

[1] = tested on: sandbur (southern sandbur, Cenchrus echinatus); assay: Test F pre-/postemergence: sandbur
Description: as §1, §2

[2] = tested on: cocklebur (common cocklebur, Xanthium strumarium); assay: Test F pre-/postemergence: cocklebur; details: Preemergence
Description: as §1, §2

[3] = tested on: poinsettia, wild (wild poinsettia, Euphorbia heterophylla); assay: Test E pre-/postemergence: poinsettia, wild; details: scale 0 to 100
Description: Seeds of plant species selected from corn (Zea mays), soybean (Glycine max), velvetleaf (Abutilon theophrasti), lambsquarters (Chenopodium album), poinsettia, wild (wild poinsettia, Euphorbia heterophylla), pigweed, palmer (palmer pigweed, Amaranthus palmeri), waterhemp (common waterhemp, Amaranthus rudis), smartweed (ladysthumb smartweed, Polygonum persicaria), surinam grass (Brachiaria decumbens), crabgrass, large (large crabgrass, Digitaria sanguinalis), crabgrass, Brazil (Brazilian crabgrass, Digitaria horizontalis), panicum, fall (fall panicum, Panicum dichotomiflorum), foxtail, giant (giant foxtail, Setaria faberii), foxtail, green (green foxtail, Setaria viridis), goosegrass (Eleusine indica), johnsongrass (Sorghum halepense), ragweed (common ragweed, Ambrosia elation), barnyardgrass (Echinochloa crus-galli), sandbur (southern sandbur, Cenchrus echinatus), arrowleaf sida (Sida rhombifolia), ryegrass, Italian (Italian ryegrass, Lolium multiflorum), dayflower, (VA) (Virginia dayflower, Commelina virginica), field bindweed (Convolvulus arvensis), cocklebur (common cocklebur, Xanthium strumarium), morningglory (Ipomoea coccinea), nightshade (eastern black nightshade, Solanum ptycanthum), kochia (Kochia scoparia), nutsedge, yellow (yellow nutsedge, Cyperus esculentus) and beggarticks (hairy beggarticks, Bidens pilosa) were planted into a silt loam soil and treated preemergence with test chemicals formulated in a non-phytotoxic solvent mixture which included a surfactant. At the same time, plants selected from these crop and weed species were planted in pots containing a growing medium comprising spaghnum peat moss, vermiculite, wetting agent and starter nutrients and treated with postemergence applications of some of the test chemicals formulated in the same manner. Plants ranged in height from 2 to 18 cm for postemergence treatments (1- to 4-leaf stage).
as §2

[4] = tested on: radish, wild (wild radish, Raphanus raphanistrum); assay: Test D pre-/postemergence: radish, wild
Description: Seeds of plant species selected from bluegrass (annual bluegrass, Poa annua), blackgrass (Alopecurus myosuroides), canarygrass (Phalaris minor), chickweed (common chickweed, Stellaria media), galium (catchweed bedstraw, Galium aparine), bromegrass, downy (downy bromegrass, Bromus tectorum), field poppy (Papaver rhoeas), field violet (Viola arvensis), foxtail, green (green foxtail, Setaria viridis), deadnettle (henbit deadnettle, Lamium amplexicaule), ryegrass, Italian (Italian ryegrass, Lolium multiflorum), kochia (Kochia scoparia), lambsquarters (Chenopodium album), oilseed rape (Brassica napus), pigweed (Amaranthus retroflexus), Russian thistle (Salsola iberica), chamomile (scentless chamomile, Matricaria inodora), speedwell (bird's-eye speedwell, Veronica persica), barley, spring (spring barley, Hordeum vulgare), wheat, spring (spring wheat, Triticum aestivum), buckwheat, wild (wild buckwheat, Polygonum convolvulus), mustard, wild (wild mustard, Sinapis arvensis), oat, wild (wild oat, Avena fatua), radish, wild (wild radish, Raphanus raphanistrum), windgrass (Apera spica-venti), barley, winter (winter barley, Hordeum vulgare), and wheat, winter (winter wheat, Triticum aestivum) were planted into a silt loam soil and treated preemergence with test chemicals formulated in a non-phytotoxic solvent mixture which included a surfactant. At the same time, these same crop and weed species were planted in pots containing the planting medium comprising spaghnum peat moss, vermiculite, wetting agent and starter nutrients and treated with postemergence applications of the test chemicals formulated in the same manner. Plants ranged in height from 2 to 18 cm (1- to 4-leaf stage).
as §2, with “controlled growth environment” for “greenhouse”, “days” for “days,”, “D,” for “E,”

[5] = Postemergence, 4 g ai/ha, scale 0 to 100
[6] = Postemergence, 8 g ai/ha, scale 0 to 100
[7] = Postemergence, 16 g ai/ha, scale 0 to 100
[8] = Postemergence, 31 g ai/ha, scale 0 to 100
[9] = Postemergence, 62 g ai/ha, scale 0 to 100
[10] = Preemergence, 4 g ai/ha, scale 0 to 100, 0 no effect, 100 complete control
[11] = Preemergence, 8 g ai/ha, scale 0 to 100, 0 no effect, 100 complete control
[12] = Preemergence, 16 g ai/ha, scale 0 to 100 (0 no effect, 100 complete control)
[13] = Preemergence, 31 g ai/ha, scale 0 to 100 (0 no effect, 100 complete control)
[14] = 31 g ai/ha, scale 0 to 100 (0 no effect, 100 complete control)
[15] = Postemergence, 31 g ai/ha, scale 0 to 100 (0 no effect, 100 complete control)
[16] = Postemergence, 62 g ai/ha, scale 0 to 100 (0 no effect, 100 complete control)
[17] = Postemergence, 125 g ai/ha, scale 0 to 100, 0 no effect, 100 complete control
[18] = Postemergence, 250 g ai/ha, scale 0 to 100 (0 no effect, 100 complete control)
[19] = Preemergence, 62 g ai/ha, scale 0 to 100
[20] = Preemergence, 125 g ai/ha, scale 0 to 100
[21] = Preemergence, 250 g ai/ha, scale 0 to 100
[22] = 16 g ai/ha, scale 0 to 100 (0 no effect, 100 complete control)
[23] = Postemergence, 125 g ai/ha, scale 0 to 100

SMILES: Cc1nn(-c2ccc(C(F)(F)F)c(F)c2)nc1Cc1ccnc(C(F)(F)F)c1 [Compound 162]
- Plant response rating, Soybean (soybean (Glycine max); [5]): 20
- Plant response rating, Soybean (soybean (Glycine max); [6]): 30
- Plant response rating, Soybean (soybean (Glycine max); [7]): 30
- Plant response rating, Soybean (soybean (Glycine max); [8]): 45
- Plant response rating, Soybean (soybean (Glycine max); [9]): 55
- Plant response rating, Soybean (soybean (Glycine max); [10]): 0
- Plant response rating, Soybean (soybean (Glycine max); [11]): 0
- Plant response rating, Soybean (soybean (Glycine max); [12]): 0
- Plant response rating, Soybean (soybean (Glycine max); [13]): 25
- Plant response rating, Sandbur [1, 5]: 10
- Plant response rating, Sandbur [1, 6]: 10
- Plant response rating, Sandbur [1, 7]: 15
- Plant response rating, Sandbur [1, 8]: 20
- Plant response rating, Sandbur [1, 9]: 20
- Plant response rating, Sandbur [1, 10]: 0
- Plant response rating, Sandbur [1, 11]: 0
- Plant response rating, Sandbur [1, 12]: 5
- Plant response rating, Sandbur [1, 13]: 15
- Plant response rating, Cocklebur ([2]; 4 g ai/ha, scale 0 to 100, 0 no effect, 100 complete control): 0
- Plant response rating, Cocklebur ([2]; 8 g ai/ha, scale 0 to 100, 0 no effect, 100 complete control): 0
- Plant response rating, Cocklebur [2, 14]: 0
- Plant response rating, Cocklebur ([2]; 62 g ai/ha, scale 0 to 100): 0

SMILES: Cc1nn(-c2ccc(C(F)(F)F)cc2)nc1Cc1ccnc(C(F)(F)F)c1 [Compound 47, 4-[[5-methyl-2-[4-(trifluoromethyl)phenyl]-2H-1,2,3-triazol-4-yl]methyl]-2-(trifluoromethyl)pyridine]
- Plant response rating: Poinsettia, Wild ([3]; Postemergence, 250 g ai/ha): 100
- Plant response rating: Poinsettia, Wild ([3]; Postemergence, 16 g ai/ha): 75
- Plant response rating: Poinsettia, Wild ([3]; Postemergence, 31 g ai/ha): 75
- Plant response rating: Poinsettia, Wild ([3]; Postemergence, 62 g ai/ha): 90
- Plant response rating: Poinsettia, Wild ([3]; Postemergence, 125 g ai/ha): 98
- Plant response rating: Poinsettia, Wild ([3]; Preemergence, 16 g ai/ha): 0
- Plant response rating: Poinsettia, Wild ([3]; Preemergence, 31 g ai/ha): 25
- Plant response rating: Poinsettia, Wild ([3]; Preemergence, 62 g ai/ha): 40
- Plant response rating: Poinsettia, Wild ([3]; Preemergence, 125 g ai/ha): 65
- Plant response rating: Poinsettia, Wild ([3]; Preemergence, 250 g ai/ha): 100

SMILES: Cc1nn(-c2ccnc(C(F)(F)F)c2)nc1Cc1ccnc(C(F)(F)F)c1 [Compound 137]
- Plant response rating: Radish, Wild [4, 15]: 40
- Plant response rating: Radish, Wild [4, 16]: 90
- Plant response rating: Radish, Wild [4, 17]: 100
- Plant response rating: Radish, Wild [4, 18]: 100
- Plant response rating, Radish, Wild [4, 7]: 40

SMILES: Cc1nn(-c2ccc(F)c(C(F)(F)F)c2)nc1Oc1ccnc(C(F)(F)F)c1 [Compound 147]
- Plant response rating: Radish, Wild [4, 15]: 100
- Plant response rating: Radish, Wild [4, 16]: 95
- Plant response rating: Radish, Wild [4, 17]: 100
- Plant response rating, Radish, Wild [4, 7]: 85
- Plant response rating, Radish, Wild [4, 13]: 10
- Plant response rating, Radish, Wild [4, 19]: 100
- Plant response rating, Radish, Wild [4, 20]: 100

SMILES: CCCc1nn(-c2ccc(F)cc2)nc1Cc1ccnc(C(F)(F)F)c1 [Compound 153]
- Plant response rating, Soybean (soybean (Glycine max); [12]): 0
- Plant response rating, Soybean (soybean (Glycine max); [13]): 0
- Plant response rating, Soybean (soybean (Glycine max); [20]): 5
- Plant response rating, Soybean (soybean (Glycine max); [21]): 25
- Plant response rating, Sandbur [1, 12]: 5
- Plant response rating, Sandbur [1, 13]: 35
- Plant response rating, Sandbur [1, 20]: 95
- Plant response rating, Sandbur [1, 21]: 100
- Plant response rating, Cocklebur [2, 22]: 0
- Plant response rating, Cocklebur ([2]; 62 g ai/ha, scale 0 to 100): 0

SMILES: Cc1nn(-c2ccc(F)c(F)c2)nc1Oc1ccnc(C(F)(F)F)c1 [Compound 145]
- Plant response rating, Soybean (soybean (Glycine max); [6]): 25
- Plant response rating, Soybean (soybean (Glycine max); [7]): 35
- Plant response rating, Soybean (soybean (Glycine max); [8]): 40
- Plant response rating, Soybean (soybean (Glycine max); [9]): 50
- Plant response rating, Soybean (soybean (Glycine max); [23]): 60
- Plant response rating, Sandbur [1, 6]: 10
- Plant response rating, Sandbur [1, 7]: 20
- Plant response rating, Sandbur [1, 8]: 30
- Plant response rating, Sandbur [1, 9]: 35
- Plant response rating, Sandbur [1, 23]: 35

SMILES: Cc1nn(-c2ccc(F)cc2)nc1Oc1ccnc(C(F)(F)F)c1 [Compound 129, 4-[[2-(4-fluorophenyl)-5-methyl-2H-1,2,3-triazol-4-yl]oxy]-2-(trifluoromethyl)pyridine]
- Plant response rating: Radish, Wild [4, 15]: 90
- Plant response rating: Radish, Wild [4, 16]: 100
- Plant response rating: Radish, Wild [4, 17]: 100
- Plant response rating: Radish, Wild [4, 18]: 100
- Plant response rating, Radish, Wild [4, 7]: 90
- Plant response rating, Radish, Wild [4, 12]: 0
- Plant response rating, Radish, Wild [4, 13]: 0
- Plant response rating, Radish, Wild [4, 19]: 10
- Plant response rating, Radish, Wild [4, 20]: 100
- Plant response rating, Radish, Wild [4, 21]: 100
- Plant response rating: Poinsettia, Wild ([3]; Preemergence, 8 g ai/ha): 0
- Plant response rating: Poinsettia, Wild ([3]; Preemergence, 16 g ai/ha): 0
- Plant response rating: Poinsettia, Wild ([3]; Preemergence, 31 g ai/ha): 0
- Plant response rating: Poinsettia, Wild ([3]; Preemergence, 62 g ai/ha): 0
- Plant response rating: Poinsettia, Wild ([3]; Preemergence, 125 g ai/ha): 25

SMILES: Cc1nn(-c2ccc(F)cc2)nc1Cc1ccnc(C(F)(F)F)c1 [Compound 16, 4-[[2-(4-fluorophenyl)-5-methyl-2H-1,2,3-triazol-4-yl]methyl]-2-(trifluoromethyl)pyridine]
- Plant response rating: Radish, Wild [4, 15]: 100
- Plant response rating: Radish, Wild [4, 16]: 100
- Plant response rating: Radish, Wild [4, 17]: 100
- Plant response rating: Radish, Wild [4, 18]: 100
- Plant response rating, Radish, Wild [4, 7]: 90
- Plant response rating: Poinsettia, Wild ([3]; Preemergence, 8 g ai/ha): 0
- Plant response rating: Poinsettia, Wild ([3]; Preemergence, 16 g ai/ha): 0
- Plant response rating: Poinsettia, Wild ([3]; Preemergence, 31 g ai/ha): 20
- Plant response rating: Poinsettia, Wild ([3]; Preemergence, 62 g ai/ha): 40
- Plant response rating: Poinsettia, Wild ([3]; Preemergence, 125 g ai/ha): 98

SMILES: Fc1ccc(-n2nc(Cc3ccnc(C(F)(F)F)c3)c(OCC(F)(F)F)n2)cc1 [Compound 142]
- Plant response rating, Soybean (soybean (Glycine max); [12]): 0
- Plant response rating, Soybean (soybean (Glycine max); [13]): 0
- Plant response rating, Soybean (soybean (Glycine max); [20]): 25
- Plant response rating, Sandbur [1, 12]: 5
- Plant response rating, Sandbur [1, 13]: 5
- Plant response rating, Sandbur [1, 20]: 70
- Plant response rating, Cocklebur [2, 22]: 0
- Plant response rating, Cocklebur [2, 14]: 0
- Plant response rating, Cocklebur ([2]; 62 g ai/ha, scale 0 to 100): 0
